We go through nine compounds from patent publication US20100160356A1, “NOVEL CYCLOBUTYL COMPOUNDS AS KINASE INHIBITORS” (priority 2006, published 2010).

One series concerns the target T1, SGK1 (Homo sapiens, UniProt O00141).
T1 sequence (O00141 1-431): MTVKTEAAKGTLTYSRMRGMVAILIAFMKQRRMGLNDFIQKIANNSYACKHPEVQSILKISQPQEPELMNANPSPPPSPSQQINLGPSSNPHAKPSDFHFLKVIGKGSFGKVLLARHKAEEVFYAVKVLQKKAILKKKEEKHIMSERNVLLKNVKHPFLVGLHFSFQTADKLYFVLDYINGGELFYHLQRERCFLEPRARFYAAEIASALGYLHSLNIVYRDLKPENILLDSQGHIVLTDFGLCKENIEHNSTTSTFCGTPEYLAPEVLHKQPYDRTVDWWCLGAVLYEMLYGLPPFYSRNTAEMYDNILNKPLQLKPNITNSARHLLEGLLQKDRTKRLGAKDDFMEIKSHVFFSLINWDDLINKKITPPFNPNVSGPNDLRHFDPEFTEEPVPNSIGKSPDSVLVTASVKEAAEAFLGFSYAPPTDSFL
Put plainly: Inhibition of SGK1 (flashplate assay). Format: biochemical. Particulars: flashplate method. On the procedure:
(§1) The test plates used are 384-well flashplate microtitre plates from Perkin Elmer (USA). The components of the kinase reaction are pipetted into the assay plate. The SGK1 kinase is incubated for 3 hr. with radioactively labelled ^33P-ATP in the presence and absence of test substances in a total volume of 100 μl at room temperature together with biotinylated poly(Glu, Tyr)4:1. The reaction is terminated using 25 μl of a 200 mM EDTA solution. After incubation for a further 30 min at room temperature, the supernatants are removed by suction, and the wells are washed three times with 100 μl of 0.9% NaCl solution each time. The radioactivity is measured using a Topcount scintillation counter (PerkinElmer, USA). IC50 values are calculated using the RS1 computer program.

Series [1] is described as follows: Solubility in phosphate buffer by the shake flask method. Format: physicochemical. Particulars: 37 °C, pH 7, aqueous buffer, thermodynamic from solid, pH 7.0, 37° C., 24 h shake flask. The protocol: The procedure described in Glomme et al. (J. Pharm. Sci. 94(1): 1-16, 2005) is followed. The concentration determination is carried out by HPLC with UV detection against a standard solution.
Buffer: 3.954 g of sodium dihydrogenphosphate monohydrate 6.024 g of sodium chloride +950 ml of ultrapure water. Setting of pH 7.0 using 0.1 M NaOH or 0.1 M HCl.
The samples were shaken at 37° C. and 450 rpm for 24 h. After about 7 h, the pH of the samples was checked and adjusted if necessary. It was checked whether the sample was still present in excess. Just before the end of the 24 h shaking time, the samples were again checked for pH and a precipitate.
• Ultrapure water plant: MilliQ gradient, Millipore, unit: F3PN37462D • Shaker: TiMix control, Bühler • Incubation hood: TH 15, Bühler • pH meter: 766 Calimatic Knick instrument: pH 1 • pH electrode: InLab 423 Mettler • HPLC: column: LiChroCart 125-4 LiChrospher 100 RP-18 • flow rate: 1.000 ml/min • eluents: • eluent A: 2 ml of diethylamine, for synthesis+1000 ml of methanol, LiChrosolv • eluent B: 5 g of ammonium acetate, for analysis+5 ml of methanol, LiChrosolv+995 ml of ultrapure water

For a further series, the target named is VEGF-2 (Homo sapiens, UniProt P35968). Put plainly: Inhibition of VEGF-2 (flashplate assay). Format: biochemical. The following applies: flashplate method. The protocol:
as §1, with “VEGF-2” for “SGK1”

A further series deals with IGF1R (Homo sapiens, UniProt P08069). Nature of the series: Inhibition of IGF1R (flashplate assay). Format: biochemical. The following applies: flashplate method. The protocol: as §1, with “are 96-well” for “are 384-well”, “The IGF1R” for “The SGK1”, “for 1” for “for 3”
Chain of IGF1R (P08069 31-1367, species assumed): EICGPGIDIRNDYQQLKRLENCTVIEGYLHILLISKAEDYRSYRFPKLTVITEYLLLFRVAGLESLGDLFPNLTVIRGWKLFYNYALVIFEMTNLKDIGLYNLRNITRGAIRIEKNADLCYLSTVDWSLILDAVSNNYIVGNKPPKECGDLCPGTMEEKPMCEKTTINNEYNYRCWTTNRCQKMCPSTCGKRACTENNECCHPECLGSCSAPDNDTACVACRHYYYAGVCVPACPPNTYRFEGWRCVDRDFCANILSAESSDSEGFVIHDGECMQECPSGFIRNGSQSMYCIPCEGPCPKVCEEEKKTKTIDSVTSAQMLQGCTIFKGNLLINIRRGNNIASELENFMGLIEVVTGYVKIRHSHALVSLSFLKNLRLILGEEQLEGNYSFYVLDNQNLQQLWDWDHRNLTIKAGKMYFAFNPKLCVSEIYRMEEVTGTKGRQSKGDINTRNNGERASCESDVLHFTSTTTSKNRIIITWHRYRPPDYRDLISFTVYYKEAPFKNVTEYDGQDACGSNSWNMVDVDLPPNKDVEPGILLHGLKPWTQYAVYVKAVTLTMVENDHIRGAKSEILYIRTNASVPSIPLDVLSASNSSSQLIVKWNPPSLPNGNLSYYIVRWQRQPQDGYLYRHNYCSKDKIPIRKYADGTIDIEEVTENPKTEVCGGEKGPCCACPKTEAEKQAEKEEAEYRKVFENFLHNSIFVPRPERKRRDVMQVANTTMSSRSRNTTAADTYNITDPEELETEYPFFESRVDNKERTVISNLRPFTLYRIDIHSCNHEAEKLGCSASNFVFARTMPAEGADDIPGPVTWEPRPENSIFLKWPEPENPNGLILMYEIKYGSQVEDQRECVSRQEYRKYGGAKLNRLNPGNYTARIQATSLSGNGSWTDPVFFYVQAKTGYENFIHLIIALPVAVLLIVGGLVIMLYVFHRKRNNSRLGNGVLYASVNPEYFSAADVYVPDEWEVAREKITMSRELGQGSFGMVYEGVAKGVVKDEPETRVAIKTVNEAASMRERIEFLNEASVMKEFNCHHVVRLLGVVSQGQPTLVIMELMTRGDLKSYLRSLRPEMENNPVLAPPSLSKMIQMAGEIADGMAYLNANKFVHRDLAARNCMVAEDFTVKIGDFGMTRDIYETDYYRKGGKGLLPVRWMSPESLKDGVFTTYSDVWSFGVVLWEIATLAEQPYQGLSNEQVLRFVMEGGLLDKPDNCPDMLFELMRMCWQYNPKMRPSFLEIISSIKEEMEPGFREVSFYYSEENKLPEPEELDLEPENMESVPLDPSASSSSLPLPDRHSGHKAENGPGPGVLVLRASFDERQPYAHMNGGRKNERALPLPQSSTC
A further series deals with T2, TGFβR1 (Homo sapiens, UniProt P36897).
T2 sequence (P36897 34-503): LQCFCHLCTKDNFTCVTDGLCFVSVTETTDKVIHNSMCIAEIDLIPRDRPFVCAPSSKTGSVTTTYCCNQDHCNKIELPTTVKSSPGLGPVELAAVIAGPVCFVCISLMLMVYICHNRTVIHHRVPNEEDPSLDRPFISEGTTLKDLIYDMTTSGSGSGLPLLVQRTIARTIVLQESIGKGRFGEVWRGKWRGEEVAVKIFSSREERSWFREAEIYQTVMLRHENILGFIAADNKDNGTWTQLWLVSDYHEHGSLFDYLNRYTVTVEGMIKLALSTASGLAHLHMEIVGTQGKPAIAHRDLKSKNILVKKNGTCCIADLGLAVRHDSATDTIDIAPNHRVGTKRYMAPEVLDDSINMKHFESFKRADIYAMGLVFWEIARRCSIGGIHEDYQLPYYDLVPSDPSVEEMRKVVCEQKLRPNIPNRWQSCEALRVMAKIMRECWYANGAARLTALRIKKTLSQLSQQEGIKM
Nature of the series: Inhibition of TGFβR1 (flashplate assay). The following applies: flashplate method. The format is biochemical. The protocol: The test is carried out as described in Example B1b for IGF1R. A biotinylated is added to the TGFβR1 kinase.
The kinase assay is carried out as a 384-well flashplate assay.
The components of the kinase reaction are pipetted into the assay plate. The TGFβR1 kinase is incubated for 45 min with radioactively labelled ^33P-ATP in the presence and absence of test substances together with biotinylated substrate in a total volume of 35 μl. The reaction is terminated using 25 μl of 200 mM EDTA solution, removed by suction after 30 min at room temperature, and the wells are washed with three times with 100 μl of 0.9% NaCl solution each time. The radioactivity is measured using a Topcount scintillation counter (PerkinElmer, USA). IC50 values are calculated using the RS1 computer program.

The next series deals with PDGFRβ (Homo sapiens, UniProt P09619). Put plainly: Inhibition of PDGFRβ (flashplate assay). The format is biochemical. Particulars: flashplate method. On the procedure: as §1, with “are 96-well” for “are 384-well”, “The PDGFRβ” for “The SGK1”, “temperature (here autophosphorylation of the kinase).” for “temperature together with biotinylated poly(Glu, Tyr)4:1.”, “using 150” for “using 25”, “a 60” for “a 200”, “with 200” for “with 100”

The next series deals with TIE2 (Homo sapiens, UniProt Q02763). Put plainly: Inhibition of TIE2 (flashplate assay). The format is biochemical. The following applies: flashplate method. On the procedure:
B4: inhibition of T1E2 (Flashplate Assay)
as §1, with “TIE2” for “SGK1”

Series [2] addresses T3, FAK (focal adhesion kinase) (Homo sapiens, UniProt Q05397).
T3 construct: endogenous in cells; host or cells: Calu-6 or HT-29
Nature of the series: Inhibition of FAK (ELISA assay), FAK phosphorylation in cells. The format is cell-based. The following applies: human cells with FAK amplification. The protocol: Activated FAK promotes the invasive growth of tumour cells and inhibits anoikis.
The amount of phosphorylated FAK is determined by a specific capture ELISA or an analogous LUMINEX assay. FAK from cell lysates is bound to a 96-well ELISA plate or LUMINEX beads by means of a specific antibody (“capturing”), and the tyrosine phosphorylation is detected using a biotin-labelled anti-phosphotyrosine antibody and a streptavidin-peroxidase conjugate by a chemiluminescence method or by means of a fluorescence-labelled anti-phosphotyrosine antibody.
For determination of the activity of kinase inhibitors, cells are pretreated with increasing concentrations of these compounds for 45 min, and the FAK phosphorylation is then determined. As internal control, a concentration series of a reference inhibitor is measured.

The next series addresses T4, IGF1 receptor (IGF1R) (Homo sapiens, UniProt P08069).
T4 construct: endogenous in cells; host or cells: MCF-7 or Calu-6
Nature of the series: Inhibition of IGF1R (ELISA assay), IGF1-stimulated autophosphorylation in cells. The following applies: human tumour cells stimulated with IGF1, read-out: IC50 IGF (ELISA). Format: cell-based. On the procedure: The stimulation induces an autophosphorylation of tyrosine residues in the cytoplasmatic IGF1R domain, which triggers signal transduction cascades, which result in inhibition of apoptosis and proliferation of the cells.
The amount of phosphorylated IGF1R is determined by a receptor-specific capture ELISA or an analogous LUMINEX assay. The IGF1R from cell lysates is bound to a 96-well ELISA plate or LUMINEX beads by means of a specific antibody (“capturing”), and the tyrosine phosphorylation is detected using a biotin-labelled anti-phosphotyrosine antibody and a streptavidin-peroxidase conjugate by a chemiluminescence method or by means of a fluorescence-labelled anti-phosphotyrosine antibody.
For determination of the activity of kinase inhibitors, cells are pretreated with increasing concentrations of these compounds for 45 min and subsequently stimulated using IGF1 for 5 min. As internal control, the biological activity of the ligand IGF1 is checked, and a concentration series of an IGF1R reference inhibitor is measured.

For orientation: pIC50 means the negative decadic logarithm of the IC50, by convention in mol/L. The solubility is the dissolved amount per volume that the medium holds. Read a low solubility as little dissolved substance. By melting point is commonly meant the temperature, or range, at which the solid turns liquid.

Each structure is given as a SMILES string. pIC50: −log10 of the molar value. Converted amounts (≈) assume the structure as drawn.

T3 sequence (Q05397 whole entry): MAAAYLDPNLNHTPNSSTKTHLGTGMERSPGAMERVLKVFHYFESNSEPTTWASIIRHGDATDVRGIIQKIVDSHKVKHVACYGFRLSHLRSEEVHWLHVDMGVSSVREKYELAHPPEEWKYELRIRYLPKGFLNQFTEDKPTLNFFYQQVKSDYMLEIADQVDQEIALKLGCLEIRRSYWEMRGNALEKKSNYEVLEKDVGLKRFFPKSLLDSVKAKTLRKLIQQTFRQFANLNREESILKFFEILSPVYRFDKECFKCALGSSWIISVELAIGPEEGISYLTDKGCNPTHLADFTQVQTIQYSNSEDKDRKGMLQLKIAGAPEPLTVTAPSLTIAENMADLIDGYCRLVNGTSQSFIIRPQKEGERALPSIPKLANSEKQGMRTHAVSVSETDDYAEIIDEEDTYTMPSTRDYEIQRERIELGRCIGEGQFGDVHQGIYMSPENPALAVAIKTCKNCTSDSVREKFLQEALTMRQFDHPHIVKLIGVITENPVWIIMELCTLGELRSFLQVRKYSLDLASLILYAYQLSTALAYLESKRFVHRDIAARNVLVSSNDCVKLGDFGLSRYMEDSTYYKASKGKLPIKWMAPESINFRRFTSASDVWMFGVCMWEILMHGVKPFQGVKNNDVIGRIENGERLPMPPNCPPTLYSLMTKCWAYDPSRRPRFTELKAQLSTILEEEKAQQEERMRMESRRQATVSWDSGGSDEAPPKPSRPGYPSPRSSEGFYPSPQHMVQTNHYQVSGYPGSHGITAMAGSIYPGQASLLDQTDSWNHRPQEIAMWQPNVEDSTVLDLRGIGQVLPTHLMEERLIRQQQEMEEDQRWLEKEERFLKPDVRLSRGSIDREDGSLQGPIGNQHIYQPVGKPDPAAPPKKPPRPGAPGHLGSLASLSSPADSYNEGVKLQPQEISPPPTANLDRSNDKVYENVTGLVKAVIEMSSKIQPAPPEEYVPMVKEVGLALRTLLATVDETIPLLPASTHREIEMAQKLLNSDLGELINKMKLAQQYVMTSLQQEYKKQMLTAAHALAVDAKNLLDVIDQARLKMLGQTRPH
Chain of TIE2 (Q02763 23-1124, species assumed): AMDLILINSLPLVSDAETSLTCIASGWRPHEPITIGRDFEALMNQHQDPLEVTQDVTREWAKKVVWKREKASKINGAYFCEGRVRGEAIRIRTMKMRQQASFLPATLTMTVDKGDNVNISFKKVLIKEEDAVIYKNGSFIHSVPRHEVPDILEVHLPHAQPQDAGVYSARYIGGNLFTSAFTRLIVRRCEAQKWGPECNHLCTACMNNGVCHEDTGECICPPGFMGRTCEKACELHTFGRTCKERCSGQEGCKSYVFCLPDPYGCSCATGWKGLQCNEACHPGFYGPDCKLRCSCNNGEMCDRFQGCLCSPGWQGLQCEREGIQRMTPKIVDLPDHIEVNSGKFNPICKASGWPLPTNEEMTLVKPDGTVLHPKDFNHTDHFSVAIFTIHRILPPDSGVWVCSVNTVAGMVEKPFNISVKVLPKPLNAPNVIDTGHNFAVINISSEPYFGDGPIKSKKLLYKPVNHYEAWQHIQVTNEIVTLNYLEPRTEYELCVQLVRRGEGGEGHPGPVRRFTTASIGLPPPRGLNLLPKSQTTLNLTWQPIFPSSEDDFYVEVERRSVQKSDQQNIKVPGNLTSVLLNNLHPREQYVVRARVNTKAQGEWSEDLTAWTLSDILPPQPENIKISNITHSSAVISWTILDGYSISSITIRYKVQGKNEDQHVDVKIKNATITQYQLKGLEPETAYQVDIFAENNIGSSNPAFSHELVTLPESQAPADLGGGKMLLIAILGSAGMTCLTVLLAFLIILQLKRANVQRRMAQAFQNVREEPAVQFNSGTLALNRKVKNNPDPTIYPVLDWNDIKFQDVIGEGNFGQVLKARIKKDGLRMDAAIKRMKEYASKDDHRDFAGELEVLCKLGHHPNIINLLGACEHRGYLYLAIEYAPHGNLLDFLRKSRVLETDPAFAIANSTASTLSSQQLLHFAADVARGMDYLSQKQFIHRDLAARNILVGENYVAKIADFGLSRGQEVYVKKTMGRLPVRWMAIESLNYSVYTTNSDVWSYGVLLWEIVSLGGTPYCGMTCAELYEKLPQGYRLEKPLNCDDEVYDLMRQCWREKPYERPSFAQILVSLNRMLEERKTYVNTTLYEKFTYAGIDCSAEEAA
T4 sequence (P08069 31-1367): as the sequence (P08069 31-1367, species assumed) above
Chain of VEGF-2 (P35968 20-1356): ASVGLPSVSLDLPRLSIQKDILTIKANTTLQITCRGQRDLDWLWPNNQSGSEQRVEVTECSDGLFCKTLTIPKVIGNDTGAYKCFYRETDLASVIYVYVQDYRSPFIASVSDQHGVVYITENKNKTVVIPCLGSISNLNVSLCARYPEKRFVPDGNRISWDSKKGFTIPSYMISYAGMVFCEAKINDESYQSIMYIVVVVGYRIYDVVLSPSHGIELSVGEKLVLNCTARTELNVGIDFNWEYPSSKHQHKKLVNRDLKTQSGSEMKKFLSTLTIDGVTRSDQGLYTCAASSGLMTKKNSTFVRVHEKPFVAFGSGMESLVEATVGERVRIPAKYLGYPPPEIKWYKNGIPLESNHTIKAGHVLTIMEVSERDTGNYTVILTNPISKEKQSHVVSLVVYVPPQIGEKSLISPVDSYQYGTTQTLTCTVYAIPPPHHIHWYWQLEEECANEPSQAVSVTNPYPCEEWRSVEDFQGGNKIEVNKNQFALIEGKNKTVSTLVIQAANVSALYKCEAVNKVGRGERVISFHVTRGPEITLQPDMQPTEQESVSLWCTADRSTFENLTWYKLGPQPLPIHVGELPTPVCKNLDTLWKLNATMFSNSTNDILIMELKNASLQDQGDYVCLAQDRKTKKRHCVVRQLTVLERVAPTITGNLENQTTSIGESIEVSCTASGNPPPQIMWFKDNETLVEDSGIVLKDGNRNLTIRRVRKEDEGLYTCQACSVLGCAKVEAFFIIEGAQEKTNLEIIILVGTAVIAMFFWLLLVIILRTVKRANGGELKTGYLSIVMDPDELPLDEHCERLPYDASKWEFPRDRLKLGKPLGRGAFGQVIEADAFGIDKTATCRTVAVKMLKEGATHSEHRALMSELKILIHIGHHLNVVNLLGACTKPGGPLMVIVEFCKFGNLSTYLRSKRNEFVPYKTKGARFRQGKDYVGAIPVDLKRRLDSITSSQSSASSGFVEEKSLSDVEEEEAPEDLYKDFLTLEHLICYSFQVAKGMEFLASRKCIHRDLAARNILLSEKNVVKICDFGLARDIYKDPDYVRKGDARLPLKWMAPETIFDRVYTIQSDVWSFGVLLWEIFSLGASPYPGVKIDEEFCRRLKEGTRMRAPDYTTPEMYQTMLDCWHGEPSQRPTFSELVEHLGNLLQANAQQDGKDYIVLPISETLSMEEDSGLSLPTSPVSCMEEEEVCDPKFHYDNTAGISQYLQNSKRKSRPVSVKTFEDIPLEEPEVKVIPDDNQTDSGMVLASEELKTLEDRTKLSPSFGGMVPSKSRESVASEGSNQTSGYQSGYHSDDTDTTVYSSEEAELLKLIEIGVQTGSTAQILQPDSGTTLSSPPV

With `NCC1CC(n2cc(C#CCO)c3c(N)ncnc32)C1` (stereo not drawn) [Compound 47], on SGK1, the pIC50 is 5.59.

As to `NCC1CC(n2cc(-c3ccc(N)cc3)c3c(N)ncnc32)C1` (stereo not drawn) [Compound 5], the melting point was 319.5 to 321 °C (dec.). The same compound gave a solubility at 24 h in series [1] of 1090 µg/mL (≈ 3.53 mM). The compound further had a pIC50 against VEGF-2 of 6.20. On IGF1R, this compound showed a pIC50 of 5.64. The pIC50 on TGFβR1 was 5.54. The same compound gave a pIC50 against PDGFRβ of 6.20.

In the case of `CCCCOc1cccc(-c2cn(C3CC(CN)C3)c3ncnc(N)c23)c1` (stereo not drawn) [Compound 7, 7-(3-Aminomethylcyclobutyl)-5-(3-butoxyphenyl)-7H-pyrrolo[2,3-d]pyrimidin-4-ylamine], the concentration in solution in [1] (solubility at 24 h) was 1120 µg/mL (≈ 3.07 mM). Further, the negative-log IC50 (pIC50) was 5.04 on VEGF-2, 5.92 against IGF1R and 6.04 against TIE2.

Turning to `NCC1CC(n2cc(-c3ccoc3)c3c(N)ncnc32)C1` (stereo not drawn) [Compound 39], the negative-log IC50 (pIC50) is 4.82 in [2], 5.60 on SGK1 and 5.07 against TGFβR1.

As to `Nc1ncnc2c1c(-c1ccc3occc3c1)cn2C1CC(CNC(=O)C(F)(F)F)C1` (stereo not drawn) [Compound 64], the melting point was in the range of 92 to 93.5 °C. The compound further showed a pIC50 at VEGF-2 of 5.97. For the same compound, in series [2], the pIC50 is 5.44. The pIC50 on SGK1 was 5.36. Besides, the pIC50 against TGFβR1 was 6.48. Further, at TIE2, the pIC50 was 5.62. Further, the pIC50 at PDGFRβ is 5.61.

Regarding `Cc1csc(-c2cn(C3CC(CN)C3)c3ncnc(N)c23)c1` (stereo not drawn) [Compound 70], the negative-log IC50 (pIC50) in [2] was 5.15; on IGF1 receptor (IGF1R), 5.07; on SGK1, 5.35; on TGFβR1 it was 5.85; at TIE2, 5.59; against PDGFRβ, 5.60.

The compound `NCC1CC(n2cc(-c3ccsc3)c3c(N)ncnc32)C1` (stereo not drawn) [Compound 40] yielded a melting point of 109 to 111 °C. The same compound showed a negative-log IC50 (pIC50) on VEGF-2 of 5.74. In series [2], this compound showed a pIC50 of 5.59. Also, the pIC50 at IGF1 receptor (IGF1R) was 4.74. The pIC50 against SGK1 is 5.08. Besides, the pIC50 against TGFβR1 was 5.66. At TIE2, this compound gave a pIC50 of 5.03. Also, the pIC50 against PDGFRβ was 6.12.

Regarding `NCC1CC(n2cc(I)c3c(N)ncnc32)C1` (stereo not drawn) [Compound 52], the pIC50 against VEGF-2 is 6.15; at IGF1 receptor (IGF1R), 5.12; against SGK1 it was 6.60; at TIE2 it was 5.59; against PDGFRβ, 5.96.

`NCC1CC(n2cc(-c3cccc(N)c3)c3c(N)ncnc32)C1` (stereo not drawn) [Compound 23]: the negative-log IC50 (pIC50) in [2] was 5.92; on IGF1 receptor (IGF1R), 4.85; against IGF1R, 5.12; on SGK1, 5.71; against TGFβR1, 6.09.
